Values of other authors in patent US11717498B2, “Methods of treatment using amphetamine controlled release, prodrug, and abuse deterrent dosage forms” (CHEMAPOTHECA, LLC, priority 2013, dated 2023).

Conditions: l-form versus d-form

SMILES: CC(C)NC[C@H](O)COc1cccc2ccccc12 [l-form of propranolol, propranolol]
- potency relative to the d-form: about 100 times
